# Values joined by “and” are separate entries in the source; they are usually repeats but may differ in a detail not shown here. Equal entries are not always repeated. Where two headings read alike, the source gives them in different places.
# What was measured:
# [1] = system: intracellular L.donovani amastigotes, GE1, in macrophages; test: Antileishmanial activity against intracellular amastigotes, GE1; assay type: cell-based
# Method: (§1) The intracellular antileishmanial activity was evaluated based on the reduction in the amastigote numbers in the infected macrophages after the treatment. The method was adapted from our previous work. Briefly, 4x10^6 amastigotes in 500 μL of RPMI-1640 suspension were added to each well containing macrophages with the macrophage: parasite ratio of 1:10. The plates were incubated for 4 h at 37°C in 5% CO2. After the parasite internalization period, cells were washed at least twice with fresh media to remove non-phagocytosed parasites. Then, the drug specimen suspended in 1 mL RPMI-1640 was added, and the samples were incubated for 72 h at 37°C in 5% CO2. The medium was aspirated, the coverslips were removed, and then fixed with methanol and air-dried. After staining with Giemsa, 100 cells on the glass discs were counted. Three independent experiments in quadruplicate for each concentration were performed.
# (§2) Microscopic examinations were performed in duplicates with various concentrations of pure drugs or buparvaquone-loaded nanoparticles and also for control wells. The amastigotes cells were counted for all cases using a hemocytometer. The mean of the control wells was considered as 100% survival. The counts in the treated wells at various concentrations were converted into percentages. Giemsa-stained slides of the macrophages infected with amastigotes were observed under a light microscope. Then the numbers of amastigotes and infected macrophages per 100 cells were counted for each slide. The percentage (%) of inhibition was calculated by using the equation %ofinhibition=C−T/C×100, (2) where C is the number of amastigotes/infected macrophages per 100 cells in the control well and T is the number of amastigotes/infected macrophages per 100 cells in the drug-treated well.
# (§3) Origin version 6.1 software was used to calculate IC50 and CC50 values by plotting a graph of the percentage of inhibition at various concentrations of all the observations.
# [2] = system: axenic L.donovani amastigotes, GE1 (isolated strain resistant to SSG); test: Antileishmanial activity against axenic amastigotes, GE1; assay type: cell-based
# Method: (§4) L. donovani AG83 (MHOM/IN/83/AG83) and GE1 (MHOM/IN/80/GE1F8R) promastigotes were routinely grown in medium 199 supplemented with 10% heat-inactivated fetal bovine serum, 2 mM L-glutamine, 20 mM HEPES, 100 U/mL penicillin, and 100 μg/mL streptomycin at 25°C. L. donovani amastigote forms were grown and maintained as described previously. Axenic amastigote forms were derived from promastigote forms by culturing them in MMA/20 (medium for axenic amastigote) at pH 5.5 [22]. Axenically grown amastigotes were maintained by sub-culture of 10^5 parasites/ml repeated every fifth day under experimental conditions of 37°C temperature and 5% CO2 environment.
# (§5) The antileishmanial activity of the drug specimens (BPQ+NP, BPQ, SSG, AmB, PMM, and MF) against the axenic amastigotes were evaluated based on the IC50 value, which is the concentration of the specimen required to kill 50% of the parasites. The parasites were first seeded into 96-well plates at a density of 1x10^5 amastigotes/well in 200 μL medium. Then, 10 μL of the drug candidates at various concentrations were added and the final volume was adjusted to […] medium. The number of amastigotes in the wells treated with each specimen were compared to those in the untreated control wells.
# as §2, §3
# [3] = system: intracellular L.donovani amastigotes, AG83-R, PMM, in macrophages; test: microbe, parasite or virus in culture; assay type: cell-based
# Method: (§6) SSG and PMM resistant L. donovani amastigotes were generated by using the methods described previously. […] The cultures were stabilized for three subcultures. Then, the drug concentration was increased until the cell population decreased approximately to 20% for each batch. Finally, when 90% cell population of the initial count was reduced, the phenotype generated was plated on medium 199 agar plates containing the same drug concentration, and a single colony was picked for culture in medium 199 liquid media at the same drug concentration. The cultured promastigotes are converted into amastigotes as described above. Drug pressure was withdrawn, and stability was checked at one, two, and four months. SSG and PMM resistant phenotype clones were labeled as AG83-R,SSG and AG83-R, PMM, respectively.
# as §1, §2, §3
# [4] = system: intracellular L.donovani amastigotes, AG83-R, SSG, in macrophages; test: microbe, parasite or virus in culture; assay type: cell-based
# Method: as §6, §1, §2, §3
# [5] = system: axenic L.donovani amastigotes, AG83-R, PMM (PMM resistant strain generated from AG83); test: microbe, parasite or virus in culture; assay type: cell-based
# Method: as §4, §6, §5, §2, §3
# [6] = system: axenic L.donovani amastigotes, AG83-R, SSG (SSG resistant strain generated from AG83); test: microbe, parasite or virus in culture; assay type: cell-based
# Method: as §4, §6, §5, §2, §3
# [7] = design: method as in PMID 1289357, PMID 14695832; conditions: cited from earlier work
# peritoneal macrophages = system: peritoneal macrophages; design: method as in earlier work; conditions: ref 32 (Reimao et al.); cited from earlier work
# [8] = system: wild-type L. donovani AG83 amastigotes in spleen; test: Culture microtitration assay (CMA) in infected mice; assay type: in vivo, BALB/c mice; conditions: for Spleen: 7 days post-treatment, n = 5; for Suppression (%) of L. donovani amastigote burden in spleen: CMA method, 2 mg/kg
# Method: The infected control group was injected with 0.2 mL of sterile water during the entire dosing period. Seven days post-treatment, the animals were sacrificed, and their spleens were aseptically removed and weighed for determination of amastigote burden by microtitration assay as described elsewhere. Wells were examined for viable and motile promastigotes. The final titer was the last dilution for which the well contained at least one parasite. […] (5) .
# [9] = system: intracellular L.donovani amastigotes, wild-type AG83, in macrophages; test: Antileishmanial activity against intracellular amastigotes, wild-type AG83; assay type: cell-based; conditions: for IC50: Leishmania donovani, Macrophage
# Method: as §1, §2, §3
# [10] = system: axenic L.donovani amastigotes, wild-type AG83; test: Antileishmanial activity against axenic amastigotes, wild-type AG83; assay type: cell-based
# Method: as §4, §5, §2, §3
# [11] = IC50 against drug resistant strain / IC50 against wild-type strain (AG83), axenic
# [12] = Leishmania donovani, axenic amastigotes, mean ± σ, n = 4
# [13] = 2 doses of 2 mg/kg i.p. at 5 days interval
# [14] = 4 doses of 2 mg/kg i.p. at 5 days interval
structure (smiles),measurement,setting,value
"CC(C)(C)[C@H]1CC[C@H](CC2=C(O)C(=O)c3ccccc3C2=O)CC1 [BPQ, Buparvaquone]","Selectivity index (SI), GE1","[1]; CC50/IC50, intracellular",90 ± 10
same,Fold larger cellular IC50 of pure BPQ than BPQ+NP,[1]; GE1,4 fold
same,IC50,"[1]; Leishmania donovani, Macrophage, intracellular amastigotes, 72 h, mean ± σ, n = 4, read-out: Cellular IC50, GE1",3.8 ± 0.4 µM
same,Fold higher axenic IC50 of pure BPQ than BPQ+NP,[2]; GE1,4 fold
same,"Resistance index (RI), GE1",[2]; [11],1.2 ± 1.4
same,IC50,[2]; [12],4.1 ± 0.8 µM
same,Fold larger cellular IC50 of pure BPQ than BPQ+NP,"[3]; AG83-R, PMM",5 fold
same,"Selectivity index (SI), AG83-R, PMM","[3]; CC50/IC50, intracellular",60 ± 10
same,IC50,"[3]; Leishmania donovani, Macrophage, 72 h, read-out: Cellular IC50, AG83-R, PMM",4.8 ± 0.5 µM
same,Fold larger cellular IC50 of pure BPQ than BPQ+NP,"[4]; AG83-R, SSG",5 fold
same,"Selectivity index (SI), AG83-R, SSG","[4]; CC50/IC50, intracellular",60 ± 10
same,IC50,"[4]; Leishmania donovani, Macrophage, 72 h, read-out: Cellular IC50, AG83-R, SSG",5.4 ± 0.4 µM
same,Fold higher axenic IC50 of pure BPQ than BPQ+NP,"[5]; AG83-R, PMM",7 fold
same,"Resistance index (RI), AG83-R, PMM",[5]; [11],2.1 ± 1.5
same,IC50,"[5]; Leishmania donovani, read-out: Axenic IC50, AG83-R, PMM",7.1 ± 0.8 µM
same,Fold higher axenic IC50 of pure BPQ than BPQ+NP,"[6]; AG83-R, SSG",8 fold
same,"Resistance index (RI), AG83-R, SSG",[6]; [11],2.4 ± 1.2
same,IC50,"[6]; Leishmania donovani, read-out: Axenic IC50, AG83-R, SSG",8.1 ± 0.8 µM
same,Aqueous solubility,[7],< 0.03 µg/mL
same,CC50,peritoneal macrophages,> 230 µM
same,Spleen,[8]; [13],140 ± 22 mg
same,Suppression (%) of L. donovani amastigote burden in spleen,[8]; [13],52% and 52 ± 3 %
same,Spleen,[8]; [14],131 ± 18 mg
same,Suppression (%) of L. donovani amastigote burden in spleen,[8]; [14],64% and 64 ± 4 %
same,Reduction of parasite burden (CMA),"[8]; spleen, 2 mg/kg i.p., 2 or 4 doses at 5 days interval",50%
same,Fold larger cellular IC50 of pure BPQ than BPQ+NP,[9]; AG83,3 fold
same,"Selectivity index (SI), AG83","[9]; CC50/IC50, intracellular",120 ± 10
same,IC50,"[9]; cellular model, range over all four L. donovani strains (Table 3), read-out: Cellular IC50, range over the strains",2 to 5 µM
same,IC50,"[9]; intracellular amastigotes, 72 h, mean ± σ, n = 4, read-out: Cellular IC50, Wild-type AG83",2.9 ± 0.3 µM
same,IC50,[10]; [12],3.4 ± 0.3 µM
same,Fold higher axenic IC50 of pure BPQ than BPQ+NP,[10]; wild-type AG83,3 fold
